This is an account of results in patent publication US20090215732A1, “COMBINATION OF COMPOUNDS, WHICH CAN BE USED IN THE TREATMENT OF RESPIRATORY DISEASES, ESPECIALLY CHRONIC OBSTRUCTIVE PULMONARY DISEASE (COPD) AND ASTHMA” (priority 2005, published 2009).

The data set is described as follows: Estimated solubility of the salt in organic solvents. It is filed as physicochemical. How it is done: (b) The Form B salt described in (a) above was also prepared by dissolving, in a vial, 20% w of a sample of the benzoate salt prepared by the method of Example 1(b) (Form A) in a solvent such as methanol (>20 mg/ml), ethanol (>20 mg/ml), n-propanol (>20 mg/ml), isopropanol (8.5 mg/ml) or acetone (9.6 mg/ml). The figures in brackets indicate the estimated solubility of the salt in these solvents. The vial was then sealed and the suspension was homogenised at ambient temperature (20° C.) using a magnet. Stirring and temperature were maintained for a period of at least 7 days after which time a sample of the material obtained was dried and tested by XRPD. XRPD confirmed that there had been complete transformation of Form A to Form B.
(a) Form B was prepared by dissolving, in a vial, 20% w of a sample of the furoate salt prepared by the method of Example 1(b) (Form A) in a solvent such as ethanol (16 mg/ml) or 2-butanol (8 mg/ml). The figures in brackets indicate the estimated solubility of the salt in these solvents. The vial was then sealed and the suspension was homogenised at ambient temperature (20° C.) using a magnet. Stirring and temperature were maintained for a period of at least 7 days after which time a sample of the material obtained was dried and tested by XRPD. XRPD confirmed that there had been complete transformation of Form A to Form B.

Where only a bound is given, the exact number is not on record here.

On to `CC(=O)Nc1ccc(O)cc1OC[C@@](C)(O)CNC1CCN(Cc2ccc(Cl)cc2)CC1.O=C(O)c1ccco1` [Example 1(c), N-{2-[((2S)-3-{[1-(4-chlorobenzyl)piperidin-4-yl]amino}-2-hydroxy-2-methylpropyl)oxy]-4-hydroxyphenyl}acetamide furoate (1:1 salt), Form A], for which the “estimated solubility of the salt” value runs as follows: (solvent 2-butanol) 8 mg/mL; (solvent ethanol) 16 mg/mL.
As for `CC(=O)Nc1ccc(O)cc1OC[C@@](C)(O)CNC1CCN(Cc2ccc(Cl)cc2)CC1.O=C(O)c1ccccc1` [Example 1(b), N-{2-[((2S)-3-{[1-(4-chlorobenzyl)piperidin-4-yl]amino}-2-hydroxy-2-methylpropyl)oxy]-4-hydroxyphenyl}acetamide benzoate (1:1 salt), Form A], the “estimated solubility of the salt” value was 9.6 mg/mL (solvent acetone); over 20 mg/mL (solvent ethanol); 8.5 mg/mL (solvent isopropanol); over 20 mg/mL (solvent methanol); over 20 mg/mL (solvent n-propanol).
